# Assay results published in patent US12084430B2, “Tricyclic urea compounds as JAK2 V617F inhibitors” (Incyte Corporation, priority 2022, dated 2024).
# Experiments:
# [1] = system: pSTAT5 signaling in SET-2 cells in whole blood; test: pSTAT5 SET-2 whole blood MSD assay; format: cell-based; conditions: Homo sapiens, pSTAT5, 2 hour, read-out: SET2 WB IC50
# Experimental: Example F. pSTAT5 SET-2 Whole Blood MSD Assay
# SET-2 cells shipped from ABS, RPMI1640 medium, Fetal Bovine Serum from Gibco, Phospho-STAT5a,b Whole Cell Lysate Kit from Mesoscale, Retronectin (Recombinant Human Fibronectin Fragment) from TaKaRa, 96 well cell culture plate flat bottom from Corning, lysis buffer from Cell Signaling Technology, and sterile PBS from Gibco. Whole Blood from by BioIVT.
# SET-2 cells were cultured in RPMI media with 20% FBS at 37° C. humidified incubator supplied with 5% CO2. On the day of the assay, 40 uL per well of diluted retronectin working solution was added to sterile 96-well clear flat bottom tissue culture plates (1:200 dilution of retronectin in sterile PBS) and incubated at 37 C for 1 hour. After 1 hour, the retronectin working solution was aspirated and SET-2 cells were seeded at 100,000/well in RPMI+20% FBS. Cells were incubated overnight at 37° C. and 5% CO2. The next day, the medium was removed and 40 μL of diluted compounds in serum-free RPMI and whole blood was added to the cells for a 2 hour incubation at 37° C. and 5% CO2. The compound starting concentration is 20 μM and 2.5 fold serial diluted down to 0.21 nM. The whole blood and compound mixture was then aspirated off using the BlueCat plate washer and washed 1× with PBS. Cells were lysed by adding 40 μL of 3× complete lysis buffer and shaken at room temperature for 45-60 minutes (complete lysis buffer consists of Cell Signaling Technology lysis buffer diluted to 3× and supplemented with Mesoscale's protease inhibitor, phosphatase I inhibitor, and phosphatase II inhibitor). The pSTAT5 MSD plates were blocked by adding 150 μL of Blocker A solution per well to the MSD plates and incubated at room temperature with shaking at 400 rpm for one hour or longer. After blocking, plates were washed 3× with 300 μL/well of IX Tris Wash Buffer. After lysis, added 25 μL per well of lysed sample was added to MSD plate and incubated with shaking at 4° C. wrapped in foil overnight. The next day, plates were washed again and 25 μL/well of diluted 1× Detection Antibody Solution, wrapped in foil, and incubated at room temperature with shaking at 400 rpm for 1 hour. Plates were then washed again and lastly, 150 μL/well of 1× Read Buffer T was added to all wells. Plates were analyzed on MSD Discovery within 5 minutes. […] Data analysis was performed in GraphPad Prism using a 4-parameter fit and data was reported as Average±SD.
# [2] = In vitro intrinsic clearance; format: in vitro ADME; conditions: human liver microsomes, 1 μM
# Experimental: Example G. In Vitro Intrinsic Clearance Protocol
# For in vitro metabolic stability experiments, test compounds were incubated with human liver microsomes at 37° C. The incubation mixture contained test compounds (1 μM), NADPH (2 mM), and human liver microsomes (0.5 mg protein/mL) in 100 mM phosphate buffer (pH 7.4). The mixture was pre-incubated for 2 min at 37° C. before the addition of NADPH. Reactions were commenced upon the addition of NADPH and quenched with ice-cold methanol at 0, 10, 20, and 30 min. Terminated incubation mixtures were analyzed using LC-MS/MS system. The analytical system consisted of a Shimadzu LC-30AD binary pump system and SIL-30AC autosampler (Shimadzu Scientific Instruments, Columbia, MD) coupled with a Sciex Triple Quad 6500+ mass spectrometer from Applied Biosystems (Foster City, CA). […] Mobile phase A consisted of 0.1% formic acid in water, and mobile phase B consisted of 0.1% formic acid in acetonitrile. The total LC-MS/MS runtime was 2.75 minutes with a flow rate of 0.75 mL/min. Peak area integrations and peak area ratio calculations were performed using Analyst software (version 1.6.3) from Applied Biosystems.
# The in vitro intrinsic clearance, CLint, in vitro, was calculated from the t1/2 of test compound disappearance as CLint, in vitro=(0.693/t1/2)×(1/Cprotein), where Cprotein is the protein concentration during the incubation, and t1/2 was determined by the slope (k) of the log-linear regression analysis of the concentration versus time profiles; thus, t1/2=ln 2/k. The CLint, in vitro values were scaled to the in vivo values for human by using physiologically based scaling factors, hepatic microsomal protein concentrations (45 mg protein/g liver), and liver weights (21 g/kg body weight). The equation CLint=CLint, in vitro×(mg protein/g liver weight)×(g liver weight/kg body weight) was used. The in vivo hepatic clearance (CLH) was then calculated by using CLint and hepatic blood flow, Q (20 mL·min^−1·kg^−1 in humans) in the well-stirred liver model disregarding all binding from CLH=(Q×CLint)/(Q+CLint). The hepatic extraction ratio was calculated as CLH divided by Q.
# FLT3 = FLT3 enzymatic assay; format: biochemical
# Experimental: Example C. FLT3 Enzymatic Assay
# The kinase assays were carried out at room temperature in assay buffer (HEPES 50 mM, pH 7.0, NaN3 0.02%, BSA 0.01%, Orthovanadate 0.1 mM, DTT 1 mM, MgCl2 10 mM) in a final volume of 10 μL. Testing compounds were prepared by serial dilution in DMSO and transferred to the plate wells by ECHO liquid handler (Labcyte) with 0.5% DMSO in the final assay. […]. Reactions were initiated by the addition of 5 μL ATP in assay buffer. The final 10 μL kinase reaction consists of 0.011 nM FLT3, 1 mM ATP, 500 nM TK Substrate-biotin and SEB reagent 62.5 nM in assay buffer. […] The plates were then sealed and centrifuged at 1800 rpm for 2 minutes. After 60 minutes incubation at room temperature, the product activity was determined by measuring the fluorescence at 620 nm and 665 nm on Pherastar microplate reader (BMG Labtech). A ratio is calculated (665/620 nm) for each well. Wells with DMSO only were served as the positive controls and wells containing no ATP were used as negative controls. IC50 determination was performed by fitting the curve of percent control activity versus the log of the compound concentration using the GraphPad Prism 7.0 software.
Structure (SMILES),IC50 [1] [µM],h-IntCL [2],Selectivity FLT3/JH2 V617F (FLT3)
"COc1nn(C)cc1-c1[nH]c2ncc3c(c2c1-c1ccc2c(cnn2C)c1)n(C1CCOCC1)c(=O)n3C [A, reference compound]",> 7.5,‡ ‡ ‡ (h-IntCL of >1 L/h/kg),* (selectivity of ≤500-fold)
"[2H]C([2H])([2H])n1ncc2cc(-c3c(-c4cn(C)nc4OC)[nH]c4ncc5c(c34)n(C3CCOCC3)c(=O)n5C)ccc21 [B, reference compound]",> 7.5,‡ ‡ (h-IntCL of ≥0.7 L/h/kg to ≤1 L/h/kg),* (selectivity of ≤500-fold)
"COc1nn(C)cc1-c1[nH]c2ncc3c(c2c1-c1ccc2c(cnn2C)c1)n([C@H]1CC[C@@H](CC#N)CC1)c(=O)n3C [E, reference compound]",–,‡ ‡ ‡ (h-IntCL of >1 L/h/kg),* (selectivity of ≤500-fold)
"COC(=O)N[C@@H]1CC[C@@H](n2c(=O)n(C)c3cnc4[nH]c(-c5cn(C)nc5OC)c(-c5ccc(F)cc5)c4c32)C1 [Example 1, Methyl ((1R,3R)-3-(8-(4-fluorophenyl)-7-(3-methoxy-1-methyl-1H-pyrazol-4-yl)-3-methyl-2-oxo-3,6-dihydroimidazo[4,5-d]pyrrolo[2,3-b]pyridin-1(2H)-yl)cyclopentyl)carbamate]",2.5 to 5,‡ ‡ (h-IntCL of ≥0.7 L/h/kg to ≤1 L/h/kg),**** (selectivity of >1750-fold to ≤5000-fold)
"COC(=O)N[C@@H]1CC[C@@H](n2c(=O)n(C)c3cnc4[nH]c(-c5cn(C)nc5OC)c(-c5ccccc5)c4c32)C1 [Example 2, Methyl ((1R,3R)-3-(7-(3-methoxy-1-methyl-1H-pyrazol-4-yl)-3-methyl-2-oxo-8-phenyl-3,6-dihydroimidazo[4,5-d]pyrrolo[2,3-b]pyridin-1(2H)-yl)cyclopentyl)carbamate]",2.5 to 5,‡ ‡ (h-IntCL of ≥0.7 L/h/kg to ≤1 L/h/kg),**** (selectivity of >1750-fold to ≤5000-fold)
"COC(=O)N[C@@H]1CC[C@@H](n2c(=O)n(C)c3cnc4[nH]c(-c5cn(C)nc5OC)c(-c5cccc(F)c5)c4c32)C1 [Example 3, Methyl ((1R,3R)-3-(8-(3-fluorophenyl)-7-(3-methoxy-1-methyl-1H-pyrazol-4-yl)-3-methyl-2-oxo-3,6-dihydroimidazo[4,5-d]pyrrolo[2,3-b]pyridin-1(2H)-yl)cyclopentyl)carbamate]",5 to 7.5,‡ ‡ (h-IntCL of ≥0.7 L/h/kg to ≤1 L/h/kg),**** (selectivity of >1750-fold to ≤5000-fold)
"COC(=O)N[C@@H]1CC[C@@H](n2c(=O)n(C)c3cnc4[nH]c(-c5cn(C)nc5OC)c(-c5ccc(OC)c(F)c5)c4c32)C1 [Example 4, Methyl ((1R,3R)-3-(8-(3-fluoro-4-methoxyphenyl)-7-(3-methoxy-1-methyl-1H-pyrazol-4-yl)-3-methyl-2-oxo-3,6-dihydroimidazo[4,5-d]pyrrolo[2,3-b]pyridin-1(2H)-yl)cyclopentyl)carbamate]",≤ 2.5,‡ (h-IntCL of <0.7 L/h/kg),***** (selectivity of >5000-fold to ≤12500-fold)
"[2H]C([2H])([2H])n1ncc2cc(-c3c(-c4cn(C)nc4OC)[nH]c4ncc5c(c34)n([C@@H]3CC[C@@H](NC(=O)OC)C3)c(=O)n5C)ccc21 [Example 5, Methyl ((1R,3R)-3-(7-(3-methoxy-1-methyl-1H-pyrazol-4-yl)-3-methyl-8-(1-(methyl-d3)-1H-indazol-5-yl)-2-oxo-3,6-dihydroimidazo[4,5-d]pyrrolo[2,3-b]pyridin-1(2H)-yl)cyclopentyl)carbamate]",≤ 2.5,‡ (h-IntCL of <0.7 L/h/kg),***** (selectivity of >5000-fold to ≤12500-fold)
"[2H]C([2H])([2H])n1cc(-c2[nH]c3ncc4c(c3c2-c2ccc3c(cnn3C([2H])([2H])[2H])c2)n([C@@H]2CC[C@@H](NC(=O)OC)C2)c(=O)n4C([2H])([2H])[2H])c(F)n1 [Example 6, Methyl ((1R,3R)-3-(7-(3-fluoro-1-(methyl-d3)-1H-pyrazol-4-yl)-3-(methyl-d3)-8-(1-(methyl-d3)-1H-indazol-5-yl)-2-oxo-3,6-dihydroimidazo[4,5-d]pyrrolo[2,3-b]pyridin-1(2H)-yl)cyclopentyl)carbamate]",≤ 2.5,‡ ‡ (h-IntCL of ≥0.7 L/h/kg to ≤1 L/h/kg),***** (selectivity of >5000-fold to ≤12500-fold)
"[2H]C([2H])([2H])n1cc(-c2[nH]c3ncc4c(c3c2-c2ccc(F)cc2)n([C@@H]2CC[C@@H](NC(=O)OC)C2)c(=O)n4C([2H])([2H])[2H])c(F)n1 [Example 7, Methyl ((1R,3R)-3-(7-(3-fluoro-1-(methyl-d3)-1H-pyrazol-4-yl)-8-(4-fluorophenyl)-3-(methyl-d3)-2-oxo-3,6-dihydroimidazo[4,5-d]pyrrolo[2,3-b]pyridin-1(2H)-yl)cyclopentyl)carbamate]",2.5 to 5,‡ (h-IntCL of <0.7 L/h/kg),**** (selectivity of >1750-fold to ≤5000-fold)
"[2H]C([2H])([2H])n1cc(-c2[nH]c3ncc4c(c3c2-c2ccc3c(c2)COC3(C)C)n([C@@H]2CC[C@@H](NC(=O)OC)C2)c(=O)n4C([2H])([2H])[2H])c(F)n1 [Example 8, Methyl ((1R,3R)-3-(8-(1,1-dimethyl-1,3-dihydroisobenzofuran-5-yl)-7-(3-fluoro-1-(methyl-d3)-1H-pyrazol-4-yl)-3-(methyl-d3)-2-oxo-3,6-dihydroimidazo[4,5-d]pyrrolo[2,3-b]pyridin-1(2H)-yl)cyclopentyl)carbamate]",≤ 2.5,‡ (h-IntCL of <0.7 L/h/kg),****** (selectivity of >12500-fold)
"[2H]C([2H])([2H])Oc1ccc(-c2c(-c3cn(C([2H])([2H])[2H])nc3F)[nH]c3ncc4c(c23)n([C@@H]2CC[C@@H](NC(=O)OC)C2)c(=O)n4C([2H])([2H])[2H])cc1 [Example 9, Methyl ((1R,3R)-3-(7-(3-fluoro-1-(methyl-d3)-1H-pyrazol-4-yl)-8-(4-(methoxy-d3)phenyl)-3-(methyl-d3)-2-oxo-3,6-dihydroimidazo[4,5-d]pyrrolo[2,3-b]pyridin-1(2H)-yl)cyclopentyl)carbamate]",2.5 to 5,‡ ‡ (h-IntCL of ≥0.7 L/h/kg to ≤1 L/h/kg),***** (selectivity of >5000-fold to ≤12500-fold)
